Reference: PubChem BioAssay AID330 (DTP/NCI, 2004)
Where “and” joins values, the source holds several entries; their conditions need not be identical. Equal values may be shown once. Toxic doses and inconclusive results are not listed.

Test system: P388 leukemia ip, CD2F1 mice, survival T/C
Assay: NCI In Vivo Anticancer Drug Screen. Data for tumor model P388 Leukemia (intraperitoneal) in CD2F1 (CDF1) mice
Settings: endpoint: median survival time, higher = longer survival
Summary of the method: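 Mice carrying the transplanted tumor received test compound or vehicle. Survival was recorded in each group, and the value is the treated-group measurement divided by that of the vehicle-treated control group.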

[1] = dose: 6.25 mg/kg/injection, schedule: Q01DX009 (ip), vehicle: Klucel (hydroxypropylcellulose) (HPC)
[2] = dose: 12.5 mg/kg/injection, schedule: Q01DX009 (ip), vehicle: Klucel (hydroxypropylcellulose) (HPC)
[3] = dose: 25.0 mg/kg/injection, schedule: Q01DX009 (ip), vehicle: Klucel (hydroxypropylcellulose) (HPC)
[4] = dose: 50.0 mg/kg/injection, schedule: Q01DX009 (ip), vehicle: saline
[5] = dose: 15.0 mg/kg/injection, schedule: Q01DX005 (ip), vehicle: Klucel (hydroxypropylcellulose) (HPC)
[6] = dose: 50.0 mg/kg/injection, schedule: Q01DX005 (ip), vehicle: saline
[7] = dose: 100.0 mg/kg/injection, schedule: Q01DX005 (ip), vehicle: saline
[8] = dose: 200.0 mg/kg/injection, schedule: Q01DX005 (ip), vehicle: saline
[9] = dose: 50.0 mg/kg/injection, schedule: Q01DX009 (ip), vehicle: saline with Tween-80
[10] = dose: 100.0 mg/kg/injection, schedule: Q01DX009 (ip), vehicle: saline with Tween-80
[11] = dose: 200.0 mg/kg/injection, schedule: Q01DX009 (ip), vehicle: saline with Tween-80
[12] = dose: 400.0 mg/kg/injection, schedule: Q01DX009 (ip), vehicle: saline with Tween-80
[13] = dose: 50.0 mg/kg/injection, schedule: Q04DX003 (ip), vehicle: saline with Tween-80
[14] = dose: 60.0 mg/kg/injection, schedule: Q01DX005 (ip), vehicle: saline with Tween-80
[15] = dose: 50.0 mg/kg/injection, schedule: Q01DX005 (ip), vehicle: Klucel (hydroxypropylcellulose) (HPC)
[16] = dose: 100.0 mg/kg/injection, schedule: Q01DX005 (ip), vehicle: Klucel (hydroxypropylcellulose) (HPC)
[17] = dose: 200.0 mg/kg/injection, schedule: Q01DX005 (ip), vehicle: Klucel (hydroxypropylcellulose) (HPC)
[18] = dose: 60.0 mg/kg/injection, schedule: Q01DX005 (ip), vehicle: Klucel (hydroxypropylcellulose) (HPC)
[19] = dose: 120.0 mg/kg/injection, schedule: Q01DX005 (ip), vehicle: Klucel (hydroxypropylcellulose) (HPC)
[20] = dose: 240.0 mg/kg/injection, schedule: Q01DX005 (ip), vehicle: Klucel (hydroxypropylcellulose) (HPC)
[21] = dose: 120.0 mg/kg/injection, schedule: Q01DX005 (ip), vehicle: saline with Tween-80
[22] = dose: 50.0 mg/kg/injection, schedule: Q01DX005 (ip), vehicle: saline with Tween-80
[23] = dose: 100.0 mg/kg/injection, schedule: Q01DX005 (ip), vehicle: saline with Tween-80
[24] = dose: 200.0 mg/kg/injection, schedule: Q01DX005 (ip), vehicle: saline with Tween-80

COC(C)(C)O/N=C(\C[P+](c1ccccc1)(c1ccccc1)c1ccccc1)c1ccc(Cl)cc1
T/C [1]: 109 % of control | T/C [2]: 106 % of control | T/C [3]: 99 % of control

CCC(=O)NC1=C(Cl)C(=O)C(Cl)=C(Cl)C1=O
T/C (dose: 3.13 mg/kg/injection, schedule: Q01DX009 (ip), vehicle: saline with Tween-80): 111 % of control | T/C (dose: 6.25 mg/kg/injection, schedule: Q01DX009 (ip), vehicle: saline with Tween-80): 103 % of control

Cc1cc2nc3ccc(N)cc3oc-2cc1=[N+](C)C
T/C (dose: 6.25 mg/kg/injection, schedule: Q01DX009 (ip), vehicle: saline): 108 % of control | T/C [4]: 100 % of control

O=C([CH-]C(=O)C(F)(F)F)C(F)(F)F.O=C([CH-]C(=O)C(F)(F)F)C(F)(F)F.O=C([CH-]C(=O)C(F)(F)F)C(F)(F)F.[Ru+3]
T/C (dose: 7.5 mg/kg/injection, schedule: Q01DX005 (ip), vehicle: Klucel (hydroxypropylcellulose) (HPC)): 97 % of control | T/C [5]: 87 % of control

COC(=O)C1=CO[C@@H](OC2OC(CO)C(O)C(O)C2O)[C@@H]2[C@H](C)[C@@H](O)[C@@H](O)[C@]12O (stereo not given in full)
T/C (dose: 25.0 mg/kg/injection, schedule: Q01DX005 (ip), vehicle: saline): 115 % of control | T/C [6]: 100 % of control | T/C [7]: 106 % of control | T/C [8]: 106 % of control

O=C1c2ccccc2C(=O)c2c(Cl)ccc(O)c21
T/C [9]: 98 % of control and 94 % of control | T/C [10]: 99 % of control and 92 % of control | T/C [11]: 104 % of control and 112 % of control | T/C [12]: 111 % of control and 112 % of control

O=C(NC1CCCCC1)O/N=C/c1cccnc1
T/C [9]: 101 % of control | T/C [10]: 98 % of control | T/C [11]: 93 % of control

CC(=O)Nc1cc(C)ccc1O
T/C [10]: 95 % of control | T/C [11]: 100 % of control | T/C [12]: 95 % of control

COc1cc2c(/C=N/NC(N)=S)c(Cl)[nH]c2cc1C
T/C (dose: 25.0 mg/kg/injection, schedule: Q04DX003 (ip), vehicle: saline with Tween-80): 105 % of control | T/C [13]: 107 % of control | T/C (dose: 100.0 mg/kg/injection, schedule: Q01DX001 (ip), vehicle: saline with Tween-80): 102 % of control | T/C (dose: 100.0 mg/kg/injection, schedule: Q04DX003 (ip), vehicle: saline with Tween-80): 90 % of control | T/C (dose: 200.0 mg/kg/injection, schedule: Q01DX001 (ip), vehicle: saline with Tween-80): 100 % of control | T/C (dose: 200.0 mg/kg/injection, schedule: Q04DX003 (ip), vehicle: saline with Tween-80): 98 % of control | T/C (dose: 400.0 mg/kg/injection, schedule: Q01DX001 (ip), vehicle: saline with Tween-80): 90 % of control

C/C(=N/NS(=O)(=O)c1c(C(C)C)cc(C(C)C)cc1C(C)C)c1cccc2c1OCO2
T/C (dose: 15.0 mg/kg/injection, schedule: Q01DX005 (ip), vehicle: saline with Tween-80): 91 % of control | T/C (dose: 30.0 mg/kg/injection, schedule: Q01DX005 (ip), vehicle: saline with Tween-80): 93 % of control | T/C [14]: 87 % of control and 92 % of control

O=C(CN1CC1)NCCCCCCCCCNC(=O)CN1CC1
T/C (dose: 2.5 mg/kg/injection, schedule: Q01DX009 (ip), vehicle: saline with Tween-80): 90 % of control | T/C (dose: 5.0 mg/kg/injection, schedule: Q01DX009 (ip), vehicle: saline with Tween-80): 150 % of control | T/C (dose: 10.0 mg/kg/injection, schedule: Q01DX009 (ip), vehicle: saline with Tween-80): 186 % of control

CC1C=CC(C)C2C(=O)C3C(C)C=CC(C)C3C(=O)C12 (stereo not given)
T/C [15]: 93 % of control | T/C [16]: 97 % of control | T/C [17]: 87 % of control

COC(=O)[C@@]12OC[C@]34[C@H]([C@@H](O)[C@@H]1O)[C@@]1(C)CC(=O)C(O)=C(C)[C@@H]1C[C@H]3OC(=O)[C@H](OC(=O)C(Cc1ccccc1)NC(=O)OC(C)(C)C)[C@@H]24 (stereo not given in full)
T/C (dose: 125.0 micrograms/kg/injection, schedule: Q01DX005 (ip), vehicle: Klucel (hydroxypropylcellulose) (HPC)): 113 % of control | T/C (dose: 250.0 micrograms/kg/injection, schedule: Q01DX005 (ip), vehicle: Klucel (hydroxypropylcellulose) (HPC)): 100 % of control | T/C (dose: 500.0 micrograms/kg/injection, schedule: Q01DX005 (ip), vehicle: Klucel (hydroxypropylcellulose) (HPC)): 116 % of control | T/C (dose: 1000.0 micrograms/kg/injection, schedule: Q01DX005 (ip), vehicle: Klucel (hydroxypropylcellulose) (HPC)): 114 % of control

Cc1ccc(-c2nc(N)sc2N=Nc2ccc(Cl)cc2Cl)cc1
T/C [18]: 96 % of control | T/C [19]: 96 % of control | T/C [20]: 97 % of control

CN(C)/N=C1/CC(=O)CC(C)(C)C1
T/C [18]: 102 % of control | T/C [19]: 100 % of control | T/C [20]: 99 % of control

O=C(CN1CCN(c2ccccc2)CC1)n1nnc2ccccc21
T/C [14]: 93 % of control | T/C [21]: 87 % of control

COC(=O)CCCC1=NC2=CC=CC3=NC(C)=NC(=N1)N23
T/C (dose: 12.5 mg/kg/injection, schedule: Q01DX009 (ip), vehicle: saline with Tween-80): 123 % of control | T/C (dose: 25.0 mg/kg/injection, schedule: Q01DX009 (ip), vehicle: saline with Tween-80): 114 % of control | T/C [9]: 98 % of control | T/C [10]: 104 % of control

CC(NC(=O)C(C)NC(=O)OC(C)(C)C)C(=O)O (stereo not given)
T/C [22]: 100 % of control | T/C [23]: 101 % of control | T/C [24]: 101 % of control

Cc1ccc(S(=O)(=O)OCC2(COS(=O)(=O)c3ccc(C)cc3)COC2)cc1
T/C (dose: 50.0 mg/kg/injection, schedule: Q01DX001 (ip), vehicle: Klucel (hydroxypropylcellulose) (HPC)): 107 % of control | T/C (dose: 100.0 mg/kg/injection, schedule: Q01DX001 (ip), vehicle: Klucel (hydroxypropylcellulose) (HPC)): 103 % of control | T/C (dose: 200.0 mg/kg/injection, schedule: Q01DX001 (ip), vehicle: Klucel (hydroxypropylcellulose) (HPC)): 100 % of control

COC(=O)CCSC(=O)NC1CCCCC1
T/C [15]: 102 % of control | T/C [16]: 107 % of control | T/C [17]: 102 % of control

C=C(C)[C@@H]1CC[C@]2(C(=O)O)CC[C@@]3(C)[C@]4(C)CC[C@@H]5[C@](C)(CC[C@@H](O)[C@@]5(C)C(=O)O)[C@H]4CC[C@]3(C)[C@@H]12
T/C [5]: 104 % of control | T/C (dose: 30.0 mg/kg/injection, schedule: Q01DX005 (ip), vehicle: Klucel (hydroxypropylcellulose) (HPC)): 117 % of control | T/C [18]: 117 % of control

CCCC(=O)NC1C(Nc2ccc(S(=O)(=O)Nc3nc(C)cc(C)n3)cc2)OC(CO)C(O)C1O (stereo not given)
T/C [6]: 97 % of control | T/C [7]: 92 % of control | T/C [8]: 99 % of control

CC(C)N=C(N)/N=C(\N)Nc1ccc2ccc3ccccc3c2c1
T/C [1]: 105 % of control | T/C [2]: 113 % of control | T/C [3]: 103 % of control

CN(C)CCC1C2CC3CC(C2)CC1C3 (stereo not given)
T/C [4]: 94 % of control | T/C (dose: 100.0 mg/kg/injection, schedule: Q01DX009 (ip), vehicle: saline): 94 % of control

C=CCN1C(=O)CCN(S(=O)(=O)c2ccc(-n3nc(C(=O)O)cc3C)cc2)C1=S
T/C [22]: 103 % of control | T/C [23]: 107 % of control | T/C [24]: 99 % of control

NOCCCCCON
T/C (dose: 50.0 mg/kg/injection, schedule: Q01DX009 (ip), vehicle: Klucel (hydroxypropylcellulose) (HPC)): 100 % of control | T/C (dose: 100.0 mg/kg/injection, schedule: Q01DX009 (ip), vehicle: Klucel (hydroxypropylcellulose) (HPC)): 106 % of control

C#CCOc1ccc(O)c(C(=O)OCCCOC(=O)c2cc(OCC#C)ccc2O)c1
T/C [14]: 104 % of control | T/C [21]: 98 % of control | T/C (dose: 240.0 mg/kg/injection, schedule: Q01DX005 (ip), vehicle: saline with Tween-80): 100 % of control

O=NN(CCCl)C(=O)Nc1cc(Cl)ccc1O
T/C [9]: 150 % of control | T/C [13]: 122 % of control
